{"source": "patent US8846757B2", "about": "“Bioactive depside and anthocyanin compounds, compositions, and methods of use” (The Trustees of Columbia University in the City of New York, priority 2006, dated 2014)", "key": {"[1]": {"tested_on": "IL-8 production in human small airway epithelial (SAE) cells", "experiment": "IL-8 immunoassay (ELISA) in SAE cells", "type": "cell-based", "settings": "compound 100 μM, 24 hours; for inhibition at 100 µM: Homo sapiens", "protocol": "Human SAE cells were cultured according to supplier instructions (Clonetics, CA) and maintained in a controlled atmosphere of air-5% CO2 at 37° C. Confluent SAE cells at passages 4-8 were used for experiments.\nCigarette smoke extract (CSE) was prepared using a modified protocol (24). Briefly, a Barnet vacuum pump operating at constant flow was used to draw the smoke of one unfiltered 2R1 reference cigarette (University of Kentucky) through 25 mL of Dulbecco's phosphate-buffered saline. This solution (100% CSE) was adjusted to pH 7.4, filtered, diluted with small airway growth medium to a final concentration of 5%, and added to the cells immediately.\nCells were treated with 5% CSE or pure compounds (100 μM), or pretreated with pure compounds 30 minutes prior to 5% CSE exposure. After 24 hours measurement of human IL-8 in cell culture supemates was performed by ELISA (R&D Systems Inc., MN). Statistical analyses were performed by Student's t-test (two-sided) using the JMP Statistics software package (SAS Institute Inc., NC) and defined at the 5% level."}, "[2]": {"tested_on": "HCT116 colon cancer cells", "experiment": "Cytotoxicity assay, HCT116", "settings": "read-out: Cytotoxicity IC50 HCT116"}, "HT29 colon cancer cells [3]": {"tested_on": "HT29 colon cancer cells", "experiment": "Cytotoxicity assay, HT29", "settings": "read-out: Cytotoxicity IC50 HT29"}, "[4]": {"experiment": "DPPH assay (antiradical activity)", "settings": "400 μM DPPH", "protocol": "The DPPH assay was performed on extracts, fractions, and purified compounds as previously described, using 400 μM DPPH (9).\nThe DPPH assay is an indication of the ability of a substance to scavenge free radicals. Gallic acid is know to be an effective free radical scavenger."}, "HT29 colon cancer cells [5]": {"tested_on": "HT29 colon cancer cells"}, "[6]": {"tested_on": "HCT116 colon cancer cells"}, "SW480 colon cancer cells": {"tested_on": "SW480 colon cancer cells", "experiment": "Cytotoxicity assay, SW480", "type": "cell-based", "settings": "72 hours, cell count"}, "HT29 colon cancer cells [7]": {"tested_on": "HT29 colon cancer cells", "settings": "positive controls, refs (8, 19); cited from earlier work"}, "[8]": {"settings": "pretreated 30 minutes prior to 5% CSE"}}, "note": "Read-outs that look alike come from different tables or passages of the source."}
{"compound": "COC(=O)Cc1c(O)cc(O)cc1OC(=O)c1ccc(O)c(O)c1", "note": "[Compound 1, methyl 2-[(3,4-dihydroxybenzoyloxy)-4,6-dihydroxyphenyl]acetate]", "values": [{"measurement": "inhibition at 100 µM", "setting": "[1]; no CSE, read-out: IL-8 inhibition in SAE cells, Untreated", "result": 81.3, "unit": "%"}, {"measurement": "inhibition at 100 µM", "setting": "[1]; pretreated 30 minutes prior to 5% CSE, read-out: IL-8 inhibition in SAE cells, Treated with 5% CSE", "result": 47.3, "unit": "%"}, {"measurement": "IC50", "setting": "[2]; Homo sapiens, HCT-116, 72 h", "result": "> 100", "unit": "µM"}, {"measurement": "IC50", "setting": "HT29 colon cancer cells [3]; Homo sapiens, HT-29, 72 h", "result": 65, "unit": "µM"}, {"measurement": "IC50", "setting": "[4]", "result": 51.4, "unit": "µM"}]}
{"compound": "O=C(O)Cc1c(O)cc(O)cc1OC(=O)c1ccc(O)c(O)c1", "note": "[Compound 2, 2-O-(3,4-dihydroxybenzoyl)-2,4,6-trihydroxyphenylacetic acid]", "values": [{"measurement": "IL-8 inhibition in SAE cells, Untreated", "setting": "[1]; no CSE", "result": 74.9, "unit": "%"}, {"measurement": "IL-8 inhibition in SAE cells, Treated with 5% CSE", "setting": "[1]; [8]", "result": 70.3, "unit": "%"}, {"measurement": "IC50", "setting": "HT29 colon cancer cells [5]", "result": "> 100", "unit": "µM"}, {"measurement": "IC50", "setting": "[6]", "result": 30, "unit": "µM"}, {"measurement": "IC50", "setting": "[4]", "result": 61.8, "unit": "µM"}]}
{"compound": "OC[C@H]1O[C@@H](Oc2cc3c(O)cc(O)cc3[o+]c2-c2ccc(O)c(O)c2)[C@H](O)[C@@H](O)[C@@H]1O", "note": "[Compound 3, cyanidin 3-glucoside]", "values": [{"measurement": "IL-8 inhibition in SAE cells, Untreated", "setting": "[1]; no CSE", "result": 65.3, "unit": "%"}, {"measurement": "IL-8 inhibition in SAE cells, Treated with 5% CSE", "setting": "[1]; [8]", "result": 36.4, "unit": "%"}, {"measurement": "IC50", "setting": "SW480 colon cancer cells", "result": "90 to 100", "unit": "µM"}, {"measurement": "IC50", "setting": "[2]; 72 hours, cell count", "result": "~70", "unit": "µM"}, {"measurement": "IC50", "setting": "HT29 colon cancer cells [3]; 72 hours, cell count", "result": "~100", "unit": "µM"}, {"measurement": "IC50", "setting": "[4]", "result": 28.4, "unit": "µM"}]}
{"compound": "OC[C@H]1O[C@@H](Oc2cc3c(O)cc(O)cc3[o+]c2-c2cc(O)c(O)c(O)c2)[C@H](O)[C@@H](O)[C@@H]1O", "note": "[Compound 4, delphinidin 3-glucoside]", "values": [{"measurement": "IL-8 inhibition in SAE cells, Untreated", "setting": "[1]; no CSE, 100 µM", "result": "Not Detected"}, {"measurement": "IL-8 inhibition in SAE cells, Treated with 5% CSE", "setting": "[1]; [8]", "result": 96.0, "unit": "%"}, {"measurement": "IC50", "setting": "SW480 colon cancer cells", "result": 20, "unit": "µM"}, {"measurement": "IC50", "setting": "[2]; 72 hours, cell count", "result": 12, "unit": "µM"}, {"measurement": "IC50", "setting": "HT29 colon cancer cells [3]; 72 hours, cell count", "result": "~100", "unit": "µM"}, {"measurement": "IC50", "setting": "[4]", "result": 26.3, "unit": "µM"}]}
{"compound": "O=c1[nH]cc(F)c(=O)[nH]1", "note": "[Compound 5-FU, 5-fluorouracil, reference compound]", "values": [{"measurement": "IC50", "setting": "SW480 colon cancer cells; Homo sapiens, SW480", "result": 53, "unit": "µM"}, {"measurement": "IC50", "setting": "[2]; Homo sapiens, HCT-116, 72 h", "result": 45.1, "unit": "µM"}, {"measurement": "IC50", "setting": "HT29 colon cancer cells [3]; Homo sapiens, HT-29, 72 h", "result": 46.1, "unit": "µM"}]}
{"compound": "O=C(O[C@@H]1Cc2c(O)cc(O)cc2O[C@@H]1c1cc(O)c(O)c(O)c1)c1cc(O)c(O)c(O)c1", "note": "[EGCG, epigallocatechin gallate]", "values": [{"measurement": "HT29 IC50", "setting": "HT29 colon cancer cells [7]", "result": 27, "unit": "µg/mL"}]}
{"compound": "O=C(O)c1cc(O)c(O)c(O)c1", "note": "[Gallic acid, gallic acid, reference compound]", "values": [{"measurement": "IC50", "setting": "[4]", "result": "30 ± 2.9", "unit": "µM"}]}
{"compound": "catechin [reference compound]", "values": [{"measurement": "IL-8 inhibition in SAE cells, Untreated", "setting": "[1]; no CSE", "result": "No Change"}, {"measurement": "IL-8 inhibition in SAE cells, Treated with 5% CSE", "setting": "[1]; [8]", "result": 60.3, "unit": "%"}]}
